Reference: ChEMBL document CHEMBL1932973, “5- and 6-membered (thio)lactones are prodrug type carbonic anhydrase inhibitors” (Bioorg Med Chem Lett, 2012)

Legend:
Carbonic anhydrase 9 [1] = molecular target: T1, Carbonic anhydrase 9 (Homo sapiens, UniProt Q16790); experiment: Inhibition of human CA9 pre-incubated for 15 mins to 24 hrs measured after 6 hrs by phenol red-based stopped-flow CO2 hydrase assay
Carbonic anhydrase 2 [2] = molecular target: T2, Carbonic anhydrase 2 (Homo sapiens, UniProt P00918); experiment: Inhibition of human CA2 pre-incubated for 15 mins to 24 hrs measured after 6 hrs by phenol red-based stopped-flow CO2 hydrase assay
Carbonic anhydrase 1 [3] = molecular target: T3, Carbonic anhydrase 1 (Homo sapiens, UniProt P00915); experiment: Inhibition of human CA1 pre-incubated for 15 mins to 24 hrs measured after 6 hrs by phenol red-based stopped-flow CO2 hydrase assay
Carbonic anhydrase 9 [4] = molecular target: T1, Carbonic anhydrase 9; experiment: Inhibition of human CA9 pre-incubated for 15 mins to 24 hrs measured after 15 mins by phenol red-based stopped-flow CO2 hydrase assay
Carbonic anhydrase 2 [5] = molecular target: T2, Carbonic anhydrase 2; experiment: Inhibition of human CA2 pre-incubated for 15 mins to 24 hrs measured after 15 mins by phenol red-based stopped-flow CO2 hydrase assay
Carbonic anhydrase 1 [6] = molecular target: T3, Carbonic anhydrase 1; experiment: Inhibition of human CA1 pre-incubated for 15 mins to 24 hrs measured after 15 mins by phenol red-based stopped-flow CO2 hydrase assay

T3 sequence (P00915 whole entry): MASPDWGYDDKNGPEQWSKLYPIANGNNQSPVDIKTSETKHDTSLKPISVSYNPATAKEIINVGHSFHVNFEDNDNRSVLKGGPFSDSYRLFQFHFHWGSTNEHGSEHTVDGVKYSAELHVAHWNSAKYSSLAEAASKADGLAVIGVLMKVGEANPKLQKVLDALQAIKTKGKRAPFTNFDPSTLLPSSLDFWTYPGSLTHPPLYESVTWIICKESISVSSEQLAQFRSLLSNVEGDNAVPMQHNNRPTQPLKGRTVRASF

Structure (SMILES) | Ki (Carbonic anhydrase 9 [1]) [µM] | Ki (Carbonic anhydrase 2 [2]) [µM] | also measured
COC1=CC(=O)OC1 | 3.38 | > 100 | 
Cc1cc(C)oc(=S)c1 | 9.51 | > 100 | 
O=C1C=CCO1 [FURAN-2(5H)-ONE] |  | > 100 | 
S=c1cccco1 | 7.45 | > 100 | 
O=c1cccco1 | 1.6 | > 100 | 
O=C1C=CCCO1 | 1.35 | > 100 | 
O=C1CCCCO1 | 3.66 | > 100 | 
O=C(O)/C=C/c1ccccc1O [O-COUMARIC ACID] | > 100 |  | Ki (Carbonic anhydrase 1 [3]): 3.4 µM
Cc1cc(C)oc(=O)c1 |  | > 100 | 
O=C(O)/C=C/CCO |  |  | Ki (Carbonic anhydrase 9 [4]): 1.15 µM; Ki (Carbonic anhydrase 2 [5]): > 100 µM; Ki (Carbonic anhydrase 1 [6]): 8.46 µM
CC1CCC(=O)O1 (stereo unspecified) | 0.92 | > 100 | 
